# Literature values, collected in patent US6689384B2, “Stable pergolide mesylate and process for making same” (Teva Pharmaceuticals Industries Ltd., priority 2000, dated 2004).
# Where a name gives a salt, the structure may show the parent alone.
# Key:
# [1] = oral administration, 14C radio-labeled
# [2] = tested on: serum concentrations of luteinizing hormone; conditions: in humans
# [3] = tested on: serum concentrations of growth hormone; conditions: in humans
# secretion of prolactin = conditions: in humans
structure (smiles),measurement,setting,value
"CCCN1CC(CSC)CC2c3cccc4[nH]cc(c34)CC21 (stereo not drawn) [Pergolide mesylate, 8(beta)-[(Methylthio)methyl]-6-propylergoline monomethanesulfonate]",administered radioactivity recovered from expired CO2,[1],~5%
same,administered radioactivity recovered from the urine,[1],approximately 55%
same,serum concentrations of luteinizing hormone,[2],decrease
same,serum concentrations of growth hormone,[3],transient rise
same,secretion of prolactin,secretion of prolactin,inhibits
CCCN1C[C@H](CSC)C[C@@H]2c3cccc4[nH]cc(c34)C[C@H]21 [Pergolide],bound to plasma proteins,plasma proteins,approximately 90%
